# Measured values taken from US20260217701A1, “SELECTIVE BET INHIBITORS AND USES THEREOF” (Tay Therapeutics Limited, priority 2022, published 2026).
# Experiments:
# IL-17A = IL-17A (Homo sapiens, UniProt Q16552); conditions: from FDA pharmacology review / corporate presentation; read-out: reported IC50 for IL-17A; cited from earlier work
# lupus [1] = assay: SLE (lupus) model: kidney and spleen weight; format: in vivo, MRL/MpJ-Faslpr mice; conditions: Week 19
# Experimental: (§1) Female MRL/MpJ-Faslpr mice (The Jackson Laboratory) were used to assess the efficacy of Compound A in treating lupus. Starting when animals were 10 weeks of age, protein concentration in urine was measured using urine dipsticks.
# (§2) At the start of the study, each group in the study had two animals that were 9 weeks old, and all others were 10 weeks old. Dosing of all animals with the test compounds began when the older animals were 11 weeks old. […] […] Dosing was at a consistent time each dosing day throughout the study.
# (§3) Compound A may be formulated as illustrated in Experimental Method A (see Table 2E.). […] A stock solution of Compound A in DMSO (stock solution concentration of Compound A of 40 mg/mL) was prepared and aliquots for weekly preparations were frozen at −20° C. On each preparation day, a stock solution aliquot was thawed and diluted with other vehicle components to the desired concentration. Formulated Compound A and vehicle were at room temperature for dosing.
# (§4) The study began when the older animals were 11 weeks old, and concluded when the older animals were 19 weeks old. Body weight was recorded once a week, with the exception of two weight measurements taken the first week of the study (when the older animals were 11 weeks old). Proteinuria was measured in the urine of animals with urine dipsticks once a week, starting when the older animals were 10 weeks old. […] Blood samples were taken retro-orbitally at the start of the study to establish a baseline (15 animals, 3 per group), and when the older animals were 16 weeks (all animals) and when animals were 19 weeks (all animals) at the conclusion of the study. Blood urea nitrogen (BUN) was measured in all animals at study termination in blood samples. After blood collection, animals were euthanized, perfused with PBS, and the left kidneys were collected and weighed and fixed in 10% buffered formalin. Left kidneys were then processed to a formalin-fixed, paraffin-embedded (FFPE) block, and histology was analyzed in Periodic Acid-Schiff-stained sections (1 section per slide), using the criteria described in Alperovich et al., Lupus, 16:18-24 (2007). Right kidneys were weighed and snap-frozen at −80° C. Spleens were also collected and weighed. SLE in animals treated with a BET inhibitor and vehicle.
# [2] = SLE (lupus) model: body weight; format: in vivo, MRL/MpJ-Faslpr mice; conditions: for Mean Body Weight: Cyclophosphamide 50 mg/kg IP once a week
# Experimental: as §1, §2, §3, §4
# lupus [3] = assay: SLE (lupus) model: kidney histology lesion scores; format: in vivo, MRL/MpJ-Faslpr mice; conditions: Week 19
# Experimental: as §1, §2, §3, §4
# lupus [4] = assay: SLE (lupus) model: blood urea nitrogen (BUN) in serum; format: in vivo, MRL/MpJ-Faslpr mice; conditions: Cyclophosphamide 50 mg/kg IP once a week; Week 19
# Experimental: as §1
# At the start of the study, each group in the study had two animals that were 9 weeks old, and all others were 10 weeks old. Dosing of all animals with the test compounds began when the older animals were 11 weeks old. Starting on Day 1, in Groups 1-4, vehicle or Compound A was administered per os (PO) […] (QD) as described above in Table 33. […] Dosing was at a consistent time each dosing day throughout the study.
# as §3, §4
# BUN provides important information about how well kidneys are working. A BUN test measures the amount of urea nitrogen in the blood and indicates how much urea has been processed by the kidneys and is indicative of renal competency. Urea is a waste product that is excreted in urine.
# lupus [5] = assay: SLE (lupus) model: proteinuria scores; format: in vivo, MRL/MpJ-Faslpr mice; conditions: Cyclophosphamide 50 mg/kg IP once a week
# Experimental: as §1, §2, §3, §4
# anti-dsDNA antibodies = assay: SLE (lupus) model: anti-dsDNA antibodies in serum by ELISA; format: in vivo, MRL/MpJ-Faslpr mice; conditions: for Anti-dsDNA Antibodies in serum, mean: Cyclophosphamide 50 mg/kg IP once a week
# Experimental: as §1, §2, §3, §4
# Anti-dsDNA antibody test measures the amount of antibody to double-stranded deoxyribonucleic acid (anti-dsDNA) that may be present in the blood. Anti-dsDNA antibodies are highly specific markers of SLE as these antibodies are not thought to be present in other kinds of autoimmune disorder.
# [6] = test system: goblet cells in gastrointestinal villi; conditions: at 28 days; Faivre et al.; not head-to-head; cited from earlier work
# BET BD2 = conditions: public sources, not a head-to-head trial, cited from earlier work
# [7] = Cyclophosphamide 50 mg/kg IP once a week
# IL-17A, sequence (Q16552 24-155): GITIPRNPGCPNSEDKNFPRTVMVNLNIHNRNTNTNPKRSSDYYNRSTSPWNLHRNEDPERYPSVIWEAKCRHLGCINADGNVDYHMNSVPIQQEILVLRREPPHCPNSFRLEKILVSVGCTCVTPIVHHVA
molecule,measurement,setting,value
DC-806 [reference compound],IC50,IL-17A,5.7 nM
"O=P1(N(CCCl)CCCl)NCCCO1 (stereo not drawn) [Cyclophosphamide, cyclophosphamide, reference compound]",Mean Kidney Weight,lupus [1]; [7],191 mg
same,Mean Spleen Weight,lupus [1]; [7],116 mg
same,Kidney weights relative to controls,lupus [1]; Compound A (10 mg/kg) and cyclophosphamide groups,slightly decreased kidney weights
same,Spleen weights relative to vehicle controls,lupus [1]; Compound A (all tested doses) and cyclophosphamide,decreased spleen weights
same,Mean Body Weight,[2]; Week 11,35.0 g
same,Mean Body Weight,[2]; Week 12,36.2 g
same,Mean Body Weight,[2]; Week 13,36.1 g
same,Mean Body Weight,[2]; Week 14,37.2 g
same,Mean Body Weight,[2]; Week 15,37.5 g
same,Mean Body Weight,[2]; Week 16,38.6 g
same,Mean Body Weight,[2]; Week 17,38.6 g
same,Mean Body Weight,[2]; Week 18,38.9 g
same,Mean Body Weight,[2]; Week 19,39.1 g
same,Relative end body weight (% of Week 11) ± SEM,[2]; Cyclophosphamide group,111.8% ± 1.7%
same,Total Glomerular Lesion (mean score),lupus [3]; [7],0.3
same,Total Glomerular Lesion (table title: Mean Total Kidney Lesion Scores),lupus [3]; [7],0.6
same,Total Tubular and Interstitial Lesion (mean score),lupus [3]; [7],0.3
same,Mean total glomerular lesion score,lupus [3]; cyclophosphamide group,0.3
same,Mean total kidney lesion score,lupus [3]; cyclophosphamide group,about 0.6
same,Mean total tubular and interstitial lesion score,lupus [3]; cyclophosphamide group,about 0.3
same,BUN serum concentration,lupus [4],11.0 mg/dL
same,Mean proteinuria score,lupus [5]; Week 10,2.00
same,Mean proteinuria score,lupus [5]; Week 11,2.05±
same,Mean proteinuria score,lupus [5]; Week 12,2.10
same,Mean proteinuria score,lupus [5]; Week 13,2.35
same,Mean proteinuria score,lupus [5]; Week 14,2.35
same,Mean proteinuria score,lupus [5]; Week 15,2.25
same,Mean proteinuria score,lupus [5]; Week 16,1.85
same,Mean proteinuria score,lupus [5]; Week 17,2.05
same,Mean proteinuria score,lupus [5]; Week 18,2.10
same,Mean proteinuria score,lupus [5]; Week 19,2.25
same,End proteinuria score ± SEM,lupus [5]; end of study (Week 19),2.25 ± 0.13
same,"Anti-dsDNA Antibodies in serum, mean",anti-dsDNA antibodies; Week 16,28 units/mL
same,"Anti-dsDNA Antibodies in serum, mean",anti-dsDNA antibodies; Week 19,23 units/mL
same,Anti-dsDNA antibodies in serum versus Vehicle group,"anti-dsDNA antibodies; Week 16 and Week 19, Compound A (10 mg/mL) and Cyclophosphamide",effective in reducing levels to well below that seen with the Vehicle administered group
CCS(=O)(=O)Nc1ccc(Oc2ccc(F)cc2F)c(-c2cn(C)c(=O)c3[nH]ccc23)c1 [ABBV-075],Effect on goblet cells in gastrointestinal villi,[6],depleted goblet cells
same,BD2,BET BD2; comparator BET inhibitors,13 nM
same,Selectivity (BD1/BD2),"BET BD2; nanoBRET assay, comparator",2.6x
